# Assay results reported in US10501493B2, “Broad spectrum antibiotics” (priority 2011, dated 2019).
# Where two headings read alike, the source gives them in different places.
# Tests used:
# S. aureus SPase = biological target: T1, S. aureus SPase (Staphylococcus aureus, UniProt P0A070); test: Steady state binding constant (Kd) determination by fluorescence increase
# T1 construct: Full length His-tagged S. aureus SPase protein was expressed similarly; His-tag; made in house; host or cells: E. coli BL21(DE3)
# Procedure: (§1) Full length His-tagged E. coli SPase proteins were expressed in E. coli BL21(DE3) containing the plasmid pET23-lepB, P. A. Smith et al. Chem Biol 2010, 1223-1231. Briefly, saturated overnight cultures grown in 20 ml of Luria-Bertani medium supplemented with ampicillin were subcultures into 1.5 L of Luria-Bertani, and shaken at 37° C. until an optical density at 600 nm of 0.4-0.5 was achieved. Protein expression was induced with Isopropyl β-D-1-thiogalactopyranoside (ITPG) at a final concentration of […], and purified using nickel affinity chromatography. Full length His-tagged S. aureus SPase protein was expressed similarly from E. coli BL21(DE3) containing the plasmid pCDF1-SaSpsB or pCDF1-SaSpsB(P29S) and purified similarly to the E. coli protein with the following exceptions. SPase protein was solubilized using 300 mM NaCl, 20 mM Tris pH 8.06, 5 mM Imidazole, 10% glycerol, 1% Triton X-100, prior to purification in Ni-NTA Superflow resin and resin bound protein was washed in a similar buffer containing 1% Elugent in place of Triton X-100 prior to protein eluted in wash buffer supplemented with 300 mM imidazole. Protein purify was judged to exceed 95% by visual inspection of SDS-PAGE followed by Comassie staining. All protein concentrations were determined by BCA assay.
# (§2) Steady state binding constants (Kds) of compounds were determined by measuring an increase in fluorescence (λex=280 nm, λem=405 nm) that occurs upon binding to E. coli or S. aureus SPase protein. Two-fold serial dilutions of compounds were prepared in 100% DMSO, and compounds were diluted into binding buffer consisting of 100 mM NaCl, 20 mM Tris-HCl pH 7.4, 1 mM EDTA, 1% n-octyl-3-glucopyranoside (Anatrace), and 10% glycerol, with the final DMSO concentration equal to 1%. 70 μl of the resulting solutions containing various concentrations of compound in binding buffer were aliquoted into triplicate wells of a black polystyrene 384-well plate. 5 μl of blank solution or E. coli or S. aureus protein at concentrations of 750 or 3750 nM respectively, were added to each set of wells for a given inhibitor concentration. Plates were incubated for 14 hours and fluorescence read on an EnVision Multilable plate reader (Perkin Elmer™). Differences in fluorescence values between wells with and without protein were determined and background corrected for protein auto fluorescence. The corrected fluorescence difference data was fit to the quadratic equilibrium binding curve using the non-linear regression analysis software Solver (Frontline Systems®) run in Excel 2010, (Microsoft®), using experimentally determined quantum efficiency constants to convert fluorescence into nanomoles of protein/compound complex.
# E. coli SPase = biological target: T2, E. coli SPase (Escherichia coli, UniProt P00803); test: as above
# T2 construct: Full length His-tagged E. coli SPase proteins were expressed in E. coli BL21(DE3); His-tag; made in house; host or cells: E. coli BL21(DE3)
# Procedure: as §1, §2
# S. agalactiae ATCC 13813 = test: In vitro antimicrobial activity, MIC by broth micro-dilution; assay type: cell-based; conditions: Streptococcus agalactiae, ATCC13813, read-out: MIC
# R. equi DSM 6939 = test: as above; assay type: cell-based; conditions: Rhodococcus (subgen. Prescottella) equi, DSM6939, read-out: MIC
# Method in brief: (§3)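 CLSI broth micro-dilution MIC against two-fold serial compound dilutions. Inoculum came from colonies grown 24 h at 35° C. or 28° C., suspended in cation-adjusted Mueller Hinton broth at 1*10^7 CFU/ml, of which 5 μl was added per 100 μl well. LepB(P84L) is a proline-mutant SPase strain with heightened arylomycin susceptibility.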
# C. glutamicum DSM 44475 = test: as above; assay type: cell-based; conditions: Corynebacterium glutamicum, DSM44475, read-out: MIC
# [1] = test system: S. aureus NCTC-8325 SpsB(P295); test: as above; assay type: cell-based; conditions: Staphylococcus aureus, NCTC8325
# E. coli MIG1655 = test: as above; assay type: cell-based; conditions: Escherichia coli, MIG1655
# Method in brief: as §3
# [2] = test system: S. epidermidis ATCC 12228; test: as above; assay type: cell-based; conditions: Staphylococcus epidermidis, ATCC12228, read-out: MIC
# S. pyogenes ATCC 19615 = test: as above; assay type: cell-based; conditions: Streptococcus pyogenes, ATCC19615, read-out: MIC
# S. aureus ATCC 29213 = test: as above; assay type: cell-based; conditions: Staphylococcus aureus, ATCC29213, read-out: MIC
# [3] = test system: P. aeruginosa PA01 LepB(P84L); test: as above; assay type: cell-based; conditions: Pseudomonas aeruginosa
# Method in brief: as §3
# S. pyogenes M15448 = test: as above; assay type: cell-based; conditions: Streptococcus pyogenes
# Method in brief: as §3
# S. epidermidis RP62A = test: as above; assay type: cell-based; conditions: Staphylococcus epidermidis; S. epidermidis RP62A; read-out: MIC
# [4] = test system: S. epidermidis RP62A SpsIB(S31P); test: as above; assay type: cell-based; conditions: Staphylococcus epidermidis
# [5] = test system: S. epidermidis RP62A SpsIB(S29P); test: as above; assay type: cell-based; conditions: Staphylococcus epidermidis
# S. agalactiae COH-1 = test: as above; assay type: cell-based; conditions: Streptococcus agalactiae, COH1
# S. pneumoniae R800 = test: as above; assay type: cell-based; conditions: Streptococcus pneumoniae, read-out: MIC
# Method in brief: as §3
# [6] = test system: E. coli MIG1655 LepB(P84L); test: as above; assay type: cell-based; conditions: Escherichia coli
# Method in brief: as §3
# S. pneumoniae D39 = test: as above; assay type: cell-based; conditions: Streptococcus pneumoniae; S. pneumoniae D39; read-out: MIC
# P. aeruginosa PA01 = test: as above; assay type: cell-based; conditions: Pseudomonas aeruginosa, read-out: MIC
# Method in brief: as §3
# [7] = S. pyogenes M15448, read-out: MIC
# [8] = S. agalactiae COH-1, read-out: MIC
Structure (SMILES),Kd (S. aureus SPase),Kd (E. coli SPase),MIC (S. agalactiae ATCC 13813),MIC (C. glutamicum DSM 44475),MIC [1],MIC [2],MIC (S. pyogenes ATCC 19615),MIC (S. aureus ATCC 29213),MIC [3],MIC (S. pyogenes M15448; [7]),MIC (S. epidermidis RP62A),MIC [4],MIC [5],MIC (S. agalactiae COH-1; [8]),MIC (S. pneumoniae R800),MIC [6],MIC (S. pneumoniae D39),MIC (S. pyogenes M15448; M15448),MIC (S. agalactiae COH-1),also measured
"CCCCCCCCCCCCCCCC(=O)N(C)[C@H](CO)C(=O)N[C@H](C)C(=O)NCC(=O)N(C)[C@@H]1C(=O)N[C@@H](C)C(=O)N[C@H](C(=O)O)Cc2ccc(O)c(c2)-c2cc1ccc2O [Compound 1, arylomycin C16]",0.75 µM,0.075 µM,16 µg/mL,8 µg/mL,4 µg/mL,2 µg/mL,16 µg/mL,> 64 µg/mL,8 µg/mL,16 µg/mL,0.3 µg/mL,> 64 µg/mL,8 µg/mL,> 64 µg/mL,8 µg/mL,1 µg/mL,4 µg/mL,,,MIC (R. equi DSM 6939): 16 µg/mL; MIC (E. coli MIG1655): > 64 µg/mL; MIC (P. aeruginosa PA01): > 64 µg/mL
CCCCCCCCCCCCCCCC(=O)N(C)[C@H](CO)C(=O)N[C@H](C)C(=O)NCC(=O)N(C)[C@@H]1C(=O)N[C@@H](C)C(=O)N[C@H](C(=O)N[C@H](C)C(=O)O)Cc2ccc(O)c(c2)-c2cc1ccc2O [Compound 19],18 µM,2.8 µM,32 µg/mL,16 µg/mL,> 64 µg/mL,32 µg/mL,16 µg/mL,> 64 µg/mL,> 64 µg/mL,,8 µg/mL,> 64 µg/mL,> 64 µg/mL,,32 µg/mL,8 µg/mL,16 µg/mL,32 µg/mL,> 64 µg/mL,
CCCCCCCCCCCCCCCC(=O)N(C)[C@H](CO)C(=O)N[C@H](C)C(=O)NCC(=O)N(C)[C@@H]1C(=O)N[C@@H](C)C(=O)N[C@H](C(=O)N[C@@H](C)C(=O)O)Cc2ccc(O)c(c2)-c2cc1ccc2O [Compound 20],7.8 µM,12 µM,32 µg/mL,64 µg/mL,> 64 µg/mL,32 µg/mL,32 µg/mL,> 64 µg/mL,> 64 µg/mL,64 µg/mL,4 µg/mL,> 64 µg/mL,32 µg/mL,> 64 µg/mL,32 µg/mL,32 µg/mL,16 µg/mL,,,
CCCCCCCCCCCCCCCC(=O)N(C)[C@H](CO)C(=O)N[C@H](C)C(=O)NCC(=O)N(C)[C@@H]1C(=O)N[C@@H](C)C(=O)N[C@H](C(=O)NS(C)(=O)=O)Cc2ccc(O)c(c2)-c2cc1ccc2O [Compound 22],19 µM,1 µM,32 µg/mL,8 µg/mL,> 64 µg/mL,> 64 µg/mL,16 µg/mL,> 64 µg/mL,> 64 µg/mL,,2 µg/mL,> 64 µg/mL,> 64 µg/mL,,16 µg/mL,16 µg/mL,16 µg/mL,16 µg/mL,> 64 µg/mL,
